Laboratory results reported in paper PMC10459693, “Toward Stability Enhancement of NTS1R-Targeted Radioligands: Structural Interventions on [^99mTc]Tc-DT1” (Pharmaceutics, 2023).
Peptide text beside a SMILES is read from it. * marks the point of attachment. Palmitoyl = CCCCCCCCCCCCCCCC(=O)*; X1 = NCCNCC(CNCCN)C(=O)*

Experiment: Radioligand metabolic stability in peripheral mouse blood (radio-HPLC)
Format: in vivo, mice
Details: peripheral mouse blood 5 min pi
Experimental: For the assessment of in vivo stability of [^99mTc]Tc-DT7/8/9, healthy Swiss Albino mice (33 animals, >8 weeks of age, body weight: 30 ± 5 g) were obtained from NCSR “Demokritos” Animal House (Athens, Greece). Animals were injected through the tail vein with the radioligand (100 μL, 2 nmol in vehicle: PBS/EtOH 9/1 v/v, with the addition of 0.1% Tween-80 in the case of [^99mTc]Tc-DT9) plus vehicle (100 μL; controls) or plus Lis (100 μg in 100 μL vehicle; Lis). Additional mice groups received per os a suspension of Entresto® (200 μL, 12 mg, 30 min prior to the i.v. injection of the radioligand plus vehicle—Entresto® group; or the i.v. injection of the radioligand plus Lis—Entresto®+Lis group). Animals were euthanized 5 min post injection (pi), and blood samples were drawn from the heart via a prechilled insulin syringe and transferred rapidly into pre-cooled 1.5 mL LoBind Eppendorf tubes containing EDTA (20 μL, 0.1 mM EDTA), and the collected radioactivity was measured in a dose calibrator (CURIEMENTOR 4, PTW Freiburg-GmbH; Freiburg, Germany). The tubes were centrifuged for 10 min at 2000× g at 4 °C in a Hettich Universal 320 R centrifuge (Tuttlingen, Germany). The plasma was collected, diluted in a 1:1 v/v ratio with MeCN, and thoroughly mixed; sample tubes were again centrifuged for 10 min at 15000× g at 4 °C. The supernatant was collected and the volume reduced to 50–100 μL under a gentle flux of N2 and mild heating at 60 °C. […] Sample activity was measured in the dose calibrator, and aliquots were analyzed by radio-HPLC on a Symmetry Shield RP18 cartridge column (5 μm, 3.9 mm × 20 mm; Waters, Eschborn, Germany) eluted at a flow rate of 1 mL/min with the linear gradient (system 2): from 100% A/0% B to 60% A/40% B in 40 min (A: 0.1% aqueous TFA; B: MeCN). […] The tR of intact [^99mTc]Tc-DT7, [^99mTc]Tc-DT8, or [^99mTc]Tc-DT9 was determined by co-injection of blood samples processed as above with an aliquot of the labeling solution. […]

**Q.** What does the source list for `CCCCCCCCCCCCCCCC(=O)NCCCC[C@H](NC(=O)C(CNCCN)CNCCN)C(=O)N[C@@H](CCCNC(=N)N)C(=O)N[C@@H](CCCNC(=N)N)C(=O)N1CCC[C@H]1C(=O)N[C@@H](Cc1ccc(O)cc1)C(=O)N[C@H](C(=O)N[C@@H](CC(C)C)C(=O)O)[C@@H](C)CC` [[^99mTc]Tc-DT9, metal not drawn] (X1-K(Palmitoyl)RRPYIL-OH)?
**A.** intact radioligand (Control): 98.06 ± 1.18 (n = 3) %; intact radioligand (Entresto): 97.33 ± 1.7 (n = 3) %; intact radioligand (Entresto+Lis): 93.72 ± 3.7 (n = 3) %
